Results from PMC10709440, “High-throughput ligand profile characterization in novel cell lines expressing seven heterologous insect olfactory receptors for the detection of volatile plant biomarkers” (Scientific Reports, 2023).
Where two headings read alike, the source gives them in different places.

What was measured:
[1] = molecular target: T1, Drosophila OR71a (Drosophila melanogaster, UniProt Q9VUK5); test: Calcium ion fluorescence (GCaMP6) assay, OR71a stable HEK293 cell line; type: cell-based; settings: for OR71a response (VUAA1-normalized) at 1 μM / OR71a response (VUAA1-normalized) at 10 μM / OR71a response (VUAA1-normalized) at 100 μM / Average response: OR71a cell line; for Average response: VUAA1-normalized response, mean of biological replicates; for activation at 1 µM / activation at 10 µM / activation at 100 µM: HEK293, read-out: OR71a response (VUAA1-normalized response); for OR71a Average response (VUAA1-normalized): 50 μM VUAA1 = 1
T1 construct: expressed in transfected cells
T1 sequence (Q9VUK5 1-378): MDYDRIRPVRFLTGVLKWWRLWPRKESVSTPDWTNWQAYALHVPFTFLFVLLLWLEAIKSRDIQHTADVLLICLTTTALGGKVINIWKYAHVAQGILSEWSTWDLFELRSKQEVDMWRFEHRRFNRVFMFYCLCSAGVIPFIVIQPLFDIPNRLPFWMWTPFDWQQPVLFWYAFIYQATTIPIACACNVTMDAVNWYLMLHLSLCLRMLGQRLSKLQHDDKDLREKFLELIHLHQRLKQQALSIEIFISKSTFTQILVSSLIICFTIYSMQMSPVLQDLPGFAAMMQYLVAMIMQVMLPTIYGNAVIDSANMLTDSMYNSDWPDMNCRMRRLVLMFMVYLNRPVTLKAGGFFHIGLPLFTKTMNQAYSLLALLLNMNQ
T1 sequence (Q9VNB5 1-486 partner): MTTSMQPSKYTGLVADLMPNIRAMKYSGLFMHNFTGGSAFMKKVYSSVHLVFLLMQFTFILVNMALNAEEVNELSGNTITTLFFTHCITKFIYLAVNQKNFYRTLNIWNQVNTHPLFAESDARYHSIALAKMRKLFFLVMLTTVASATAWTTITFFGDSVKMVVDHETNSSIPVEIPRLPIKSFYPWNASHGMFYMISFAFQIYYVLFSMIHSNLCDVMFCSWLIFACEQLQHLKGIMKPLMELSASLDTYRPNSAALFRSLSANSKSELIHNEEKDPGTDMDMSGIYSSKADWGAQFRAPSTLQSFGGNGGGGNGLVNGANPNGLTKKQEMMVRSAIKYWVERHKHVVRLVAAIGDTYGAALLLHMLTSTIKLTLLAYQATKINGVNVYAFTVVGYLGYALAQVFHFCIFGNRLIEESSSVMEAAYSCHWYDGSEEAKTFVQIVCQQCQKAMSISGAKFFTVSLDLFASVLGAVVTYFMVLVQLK
Protocol: These VUAA1 normalized ∆F values were used to compare the different receptors and ligands.
The concentration-dependent effect of the reference ligands on their cognate cell lines was examined in more detail. Twelve different ligand concentrations were measured on each cell line in an overall 0.01 μM to 100 μM concentration range with 5 repetitions with three technical replicates each time.
Twelve thousand to 18,000 cells were plated into each well of a black wall, transparent bottom 384-well microplate (Greiner) 48 h or 72 h before the measurements and were simultaneously treated with 1 μg/mL doxycycline. […] The plate has 24 columns, thus we could record responses in up to eight different cell lines in each plate. On the day of the experiment, the growth medium was replaced with 20 µL assay buffer/well (140 mM NaCl, 5 mM KCl, 2 mM CaCl2, 1 mM MgCl2, 5 mM HEPES-Na, 20 mM glucose, pH 7.3, 340 mOsm). […] Baseline fluorescence (F0) was recorded for 5 s, after which 7 µL VOC buffer (140 mM NaCl, 5 mM KCl, 2 mM CaCl2, 1 mM MgCl2, 5 mM HEPES-Na, 31 mM glucose, 0.1% DMSO, pH 7.3, 340 mOsm) was injected into each well in one row and the fluorescence response was recorded for an additional 30 s, at a rate of one read/sec. VOC solutions (VOC buffer with 4× concentration of the final measured VOC concentration, 9 µL/well was injected) were measured on the same wells in a second round with the same protocol. Each individual concentration of a specific VOC sample was recorded in three wells for the same cell line on the same microplate. The raw data were exported in xls file format, F0 and FMAX values, and the fluorescence intensity changes (∆F) were calculated in Excel (Microsoft) (Supplementary file Data summary.xlsx) using the following equation: ΔF=FMAX-F0/F0 (see also Fig. 1C). On each plate, we recorded the response of each cell line to 50 µM VUAA1. The average of these ∆F values of each cell line were used to calculate the VUAA1-normalized values for the rest of the plate, by dividing VOC response ∆F values by the average VUAA1 response ∆F value of the corresponding OR cell line. Each VOC-OR combination was measured three times as technical replicates. […] The average of these replicates were used as one ∆F and VUAA1-normalized ∆F in the following analysis.
In the next rows we tested the reference VOCs (or other VOCs known to activate the corresponding cell lines), in order to test if all cell lines are responsive. The remaining rows were used to test VOCs with unknown effect.
The recorded FMAX, F0, ∆F, VUAA1-normalized ∆F values, as well as the OR name, the name of the tested sample, and the final concentration for each well were copied into supplementary file Data summary.xlsx, that was used to summarize all the plates recorded. Here, the averages of the measurements were calculated for each receptor-VOC-concentration combination.

[2] = molecular target: T2, Drosophila OR49b (Drosophila melanogaster, UniProt Q9V6H2); test: cell-based; settings: for activation at 1 µM / activation at 10 µM / activation at 100 µM: HEK293; for OR49b response (VUAA1-normalized) at 1 μM / OR49b response (VUAA1-normalized) at 10 μM / OR49b response (VUAA1-normalized) at 100 μM / Average response: OR49b cell line; for Average response: mean of biological replicates
T2 construct: expressed in transfected cells
T2 sequence (Q9V6H2 1-375): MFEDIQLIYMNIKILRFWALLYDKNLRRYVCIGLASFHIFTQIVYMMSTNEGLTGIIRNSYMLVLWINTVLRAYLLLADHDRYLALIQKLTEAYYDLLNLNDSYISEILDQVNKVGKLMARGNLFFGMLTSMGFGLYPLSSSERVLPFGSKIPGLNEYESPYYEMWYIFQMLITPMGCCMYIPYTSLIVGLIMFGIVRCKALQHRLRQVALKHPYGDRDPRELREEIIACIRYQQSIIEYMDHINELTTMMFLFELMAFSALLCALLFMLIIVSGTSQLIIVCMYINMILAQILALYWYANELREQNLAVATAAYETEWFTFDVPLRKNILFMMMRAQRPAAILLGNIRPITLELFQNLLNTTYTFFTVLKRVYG
T2 sequence (Q9VNB5 1-486 partner): T1 sequence (Q9VNB5 1-486 partner)
In short: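 HEK293 lines stably expressing each Drosophila OR with GCaMP6, doxycycline-induced (1 μg/mL) 48 or 72 h. Fluorescence recorded 5 s baseline then 30 s after VOC injection at pH 7.3; ΔF=(FMAX−F0)/F0, normalized to 50 µM VUAA1 response per line, triplicate wells averaged; concentration series 0.01–100 μM.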

[3] = ligand concentration 1 (unit not given), 0.05 threshold, values below shown as 0
[4] = ligand concentration 10 (unit not given), 0.05 threshold, values below shown as 0
[5] = ligand concentration 100 (unit not given), 0.05 threshold, values below shown as 0
[6] = concentration 1, normalized fluorescence change, values below 0.05 threshold given as 0
[7] = concentration 10, normalized fluorescence change, values below 0.05 threshold given as 0
[8] = concentration 100, normalized fluorescence change, values below 0.05 threshold given as 0
[9] = VOC concentration 1 μM, read-out: OR49b response (VUAA1-normalized response)
[10] = VOC concentration 10 μM, read-out: OR49b response (VUAA1-normalized response)
[11] = VOC concentration 100 μM, read-out: OR49b response (VUAA1-normalized response)

Structure (SMILES)	OR71a response (VUAA1-normalized) at 1 μM ([1]; VOC concentration 1 μM)	OR71a response (VUAA1-normalized) at 10 μM ([1]; VOC concentration 10 μM)	OR71a response (VUAA1-normalized) at 100 μM ([1]; VOC concentration 100 μM)	Average response ([1]; cc. 1 µM)	Average response ([1]; cc. 10 µM)	Average response ([1]; cc. 100 µM)	DF norm AVERAGE OR71a [1, 3]	DF norm AVERAGE OR71a [1, 4]	DF norm AVERAGE OR71a [1, 5]	OR49b response (VUAA1-normalized) at 1 μM ([2]; VOC concentration 1 μM)	OR49b response (VUAA1-normalized) at 10 μM ([2]; VOC concentration 10 μM)	OR49b response (VUAA1-normalized) at 100 μM ([2]; VOC concentration 100 μM)	Average response ([2]; odorant cc. 1 µM)	Average response ([2]; odorant cc. 10 µM)	Average response ([2]; odorant cc. 100 µM)	activation at 1 µM [1] [%]	activation at 10 µM [1] [%]	DF norm AVERAGE OR71a [1, 6]	DF norm AVERAGE OR71a [1, 7]	DF norm AVERAGE OR71a [1, 8]	other results
Cc1ccccc1 [toluene]	0.00	0.00	0.00	0.00	0.00	0.00	0	0	0	0.00	0.00	0.44	0.00	0.00	0.44	–	–	–	–	–	activation at 1 µM ([2]; 1 μM VOC, 50 μM VUAA1 = 1, read-out: OR49b Average response (VUAA1-normalized)): 0%; activation at 10 µM ([2]; 10 μM VOC, 50 μM VUAA1 = 1, read-out: OR49b Average response (VUAA1-normalized)): 0%; activation at 100 µM ([2]; 100 μM VOC, 50 μM VUAA1 = 1, read-out: OR49b Average response (VUAA1-normalized)): 44%; DF norm AVERAGE OR49b [2, 3]: 0; DF norm AVERAGE OR49b [2, 4]: 0; DF norm AVERAGE OR49b ([2]; ligand concentration 100 (unit not given), […]): 0.4351
CCCCCC(C)=O [2-heptanone]	–	–	–	0.08	0.12	0.05	–	–	–	–	–	–	0.00	0.00	0.02	8	12	0.08012	0.1157	0.05175	activation at 100 µM [1]: 5%; DF norm AVERAGE OR49b [2]: 0; activation at 1 µM [2, 9]: 0%; activation at 10 µM [2, 10]: 0%; activation at 100 µM [2, 11]: 0%
C=C1[C@H]2CC[C@@H]3[C@H]2C(C)(C)CCC[C@]13C [(+)-longifolene]	–	–	–	0.00	0.03	0.0431	–	–	–	–	–	–	0.08	0.00	0.00	–	–	0	0	0	OR71a response (VUAA1-normalized response) ([1]; VOC concentration 1 μM): 0.00; OR71a response (VUAA1-normalized response) ([1]; VOC concentration 10 μM): 0.00; OR71a response (VUAA1-normalized response) ([1]; VOC concentration 100 μM): 0.00; OR49b response (VUAA1-normalized response) ([2]; VOC concentration 1 μM): 0.08; OR49b response (VUAA1-normalized response) ([2]; VOC concentration 10 μM): 0.00; OR49b response (VUAA1-normalized response) ([2]; VOC concentration 100 μM): 0.00
CCCCCC(C)O (centres unmarked) [2-heptanol]	–	–	–	0.00	0.04	0.16	–	–	–	–	–	–	0.00	0.00	0.0651	0	0	0	0	0.1631	OR71a Average response (VUAA1-normalized) ([1]; 1 μM VOC): 0.00; OR71a Average response (VUAA1-normalized) ([1]; 10 μM VOC): 0.04; OR71a Average response (VUAA1-normalized) ([1]; 100 μM VOC): 0.16; activation at 100 µM [1]: 16%; activation at 1 µM [2, 9]: 0%; activation at 10 µM [2, 10]: 0%; activation at 100 µM [2, 11]: 6.51%
CCCCCCCCCCCCCC [tetradecane]	0.00	0.00	0.00	0.0218	0.0215	0.0462	0	0	0	0.07	0.05	0.00	0.07	0.05	0.0348	–	–	–	–	–	DF norm AVERAGE OR49b ([2]; ligand concentration 1 (unit not given), […]): 0.06864; DF norm AVERAGE OR49b ([2]; ligand concentration 10 (unit not given), […]): 0.05202; DF norm AVERAGE OR49b [2, 5]: 0
CC1=CCC[C@@]2(C)[C@@H]3CC[C@]12CC3(C)C [(−)-α-neoclovene]	–	–	–	0.00	0.00	0.0221	–	–	–	–	–	–	0.00	0.00	0.00	–	–	0	0	0	OR71a response (VUAA1-normalized response) ([1]; VOC concentration 1 μM): 0.00; OR71a response (VUAA1-normalized response) ([1]; VOC concentration 10 μM): 0.00; OR71a response (VUAA1-normalized response) ([1]; VOC concentration 100 μM): 0.00; DF norm AVERAGE OR49b [2]: 0; OR49b response (VUAA1-normalized response) ([2]; VOC concentration 1 μM): 0.00; OR49b response (VUAA1-normalized response) ([2]; VOC concentration 10 μM): 0.00; OR49b response (VUAA1-normalized response) ([2]; VOC concentration 100 μM): 0.00
